In the supplement of paper PMC10307832:

Columns and labels:
Assay in all cases: relative viability (nuclei count vs DMSO), 5 days (fraction); higher = more cells survive
CAP-232 + OSI-027 = compound: C[C@H]([C@@H](C(=O)N)NC(=O)[C@@H]1CSSC[C@@H](C(=O)N[C@H](C(=O)N[C@@H](C(=O)N[C@H](C(=O)N1)CCCCN)CC2=CNC3=CC=CC=C32)CC4=CC=C(C=C4)O)NC(=O)[C@@H](CC5=CC=CC=C5)N)O [CAP-232] + COc1cccc2cc(-c3nc([C@H]4CC[C@H](C(=O)O)CC4)n4ncnc(N)c34)[nH]c12 [OSI-027] (partner 0.5 µM)
Procedure, shortened: (§1)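 Lung cancer cell lines were seeded in 1536-well plates and dosed by pin tool the next day, with either a single drug or a fixed anchor-drug dose combined with five library-drug doses (not always all listed) spaced in √10 steps. Five days later, one step fixed the cells and stained their nuclei (final 0.05% Triton X-100, 1% formaldehyde, 1 ug/ml Hoechst), and nuclei were counted on 4× images. Relative viability is the nuclei count in treated wells divided by the count in vehicle wells, and each value is the median of duplicate plates.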

CAP-232 + Navitoclax = compound: C[C@H]([C@@H](C(=O)N)NC(=O)[C@@H]1CSSC[C@@H](C(=O)N[C@H](C(=O)N[C@@H](C(=O)N[C@H](C(=O)N1)CCCCN)CC2=CNC3=CC=CC=C32)CC4=CC=C(C=C4)O)NC(=O)[C@@H](CC5=CC=CC=C5)N)O [CAP-232] + CC1(C)CCC(c2ccc(Cl)cc2)=C(CN2CCN(c3ccc(C(=O)NS(=O)(=O)c4ccc(N[C@H](CCN5CCOCC5)CSc5ccccc5)c(S(=O)(=O)C(F)(F)F)c4)cc3)CC2)C1 [Navitoclax] (partner 0.5 µM)
Procedure, shortened: as §1

CAP-232 + Tozasertib = compound: C[C@H]([C@@H](C(=O)N)NC(=O)[C@@H]1CSSC[C@@H](C(=O)N[C@H](C(=O)N[C@@H](C(=O)N[C@H](C(=O)N1)CCCCN)CC2=CNC3=CC=CC=C32)CC4=CC=C(C=C4)O)NC(=O)[C@@H](CC5=CC=CC=C5)N)O [CAP-232] + Cc1cc(Nc2cc(N3CCN(C)CC3)nc(Sc3ccc(NC(=O)C4CC4)cc3)n2)n[nH]1 [Tozasertib] (partner 0.1 µM)
Procedure, shortened: as §1

CAP-232 + Foretinib = compound: C[C@H]([C@@H](C(=O)N)NC(=O)[C@@H]1CSSC[C@@H](C(=O)N[C@H](C(=O)N[C@@H](C(=O)N[C@H](C(=O)N1)CCCCN)CC2=CNC3=CC=CC=C32)CC4=CC=C(C=C4)O)NC(=O)[C@@H](CC5=CC=CC=C5)N)O [CAP-232] + COc1cc2c(Oc3ccc(NC(=O)C4(C(=O)Nc5ccc(F)cc5)CC4)cc3F)ccnc2cc1OCCCN1CCOCC1 [Foretinib] (partner 0.25 µM)
Procedure, shortened: as §1

CAP-232 + Pemetrexed = compound: C[C@H]([C@@H](C(=O)N)NC(=O)[C@@H]1CSSC[C@@H](C(=O)N[C@H](C(=O)N[C@@H](C(=O)N[C@H](C(=O)N1)CCCCN)CC2=CNC3=CC=CC=C32)CC4=CC=C(C=C4)O)NC(=O)[C@@H](CC5=CC=CC=C5)N)O [CAP-232] + Nc1nc2[nH]cc(CCc3ccc(C(=O)N[C@@H](CCC(=O)O)C(=O)O)cc3)c2c(=O)[nH]1 [Pemetrexed] (partner 0.2 µM)
Procedure, shortened: as §1

Cell Line | relative viability (CAP-232 + OSI-027; first compound 0.4 µM) | relative viability (CAP-232 + OSI-027; first compound 1.265 µM) | relative viability (CAP-232 + OSI-027; first compound 4 µM) | relative viability (CAP-232 + OSI-027; first compound 12.65 µM) | relative viability (CAP-232 + Navitoclax; first compound 0.4 µM) | relative viability (CAP-232 + Navitoclax; first compound 1.265 µM) | relative viability (CAP-232 + Navitoclax; first compound 4 µM) | relative viability (CAP-232 + Navitoclax; first compound 12.65 µM) | relative viability (CAP-232 + Tozasertib; first compound 0.4 µM) | relative viability (CAP-232 + Tozasertib; first compound 1.265 µM) | relative viability (CAP-232 + Tozasertib; first compound 4 µM) | relative viability (CAP-232 + Tozasertib; first compound 12.65 µM) | relative viability (CAP-232 + Foretinib; first compound 0.4 µM) | relative viability (CAP-232 + Foretinib; first compound 1.265 µM) | relative viability (CAP-232 + Foretinib; first compound 4 µM) | relative viability (CAP-232 + Foretinib; first compound 12.65 µM) | relative viability (CAP-232 + Pemetrexed; first compound 0.4 µM) | relative viability (CAP-232 + Pemetrexed; first compound 1.265 µM) | relative viability (CAP-232 + Pemetrexed; first compound 4 µM) | relative viability (CAP-232 + Pemetrexed; first compound 12.65 µM)
201T | 0.749 | 0.669 | 0.722 | 0.549 | 1.23 | 1.19 | 1.12 | 1.22 | 1.04 | 0.91 | 0.979 | 0.926 | 1.17 | 1.14 | 1.03 | 0.864 | 0.341 | 0.332 | 0.356 | 0.303
A549 | – | – | – | – | 1.33 | 1.19 | 1.25 | 0.482 | – | – | – | – | 1.01 | 0.998 | 0.935 | 0.369 | – | – | – | –
A-427 | 0.306 | 0.458 | 0.494 | 0.612 | 0.926 | 0.996 | 0.941 | 0.965 | 0.164 | 0.186 | 0.149 | 0.207 | 0.852 | 1.19 | 1.05 | 1.1 | 1.22 | 0.923 | 0.974 | 0.924
ABC-1 | 0.455 | 0.421 | 0.481 | 0.271 | – | – | – | – | 0.155 | 0.143 | 0.179 | 0.148 | 0.772 | 0.876 | 1.35 | 0.677 | – | – | – | –
BEN | 0.27 | 0.33 | 0.287 | 0.241 | 0.0584 | 0.0704 | 0.0685 | 0.0473 | 0.413 | 0.547 | 0.387 | 0.635 | 0.776 | 0.624 | 0.595 | 0.595 | 0.888 | 0.613 | 0.923 | 0.752
CAL-12T | 0.611 | 0.556 | 0.585 | 0.298 | 1.05 | 1.21 | 1.3 | 0.94 | 0.434 | 0.264 | 0.262 | 0.358 | 1.06 | 1.06 | 0.927 | 0.85 | 0.929 | 1.26 | 1.16 | 1.1
COR-L23 | 1.15 | 0.759 | 0.85 | 0.495 | 1.02 | 1.1 | 0.977 | 0.572 | 0.176 | 0.194 | 0.187 | 0.193 | 1.02 | 0.957 | 1.1 | 0.851 | 0.203 | 0.199 | 0.196 | 0.163
COR-L 105 | 0.852 | 0.646 | 0.646 | 0.387 | 0.748 | 0.69 | 0.796 | 0.498 | 0.346 | 0.387 | 0.379 | 0.323 | 0.955 | 0.851 | 1.22 | 0.572 | 1.44 | 0.964 | 1.18 | 0.783
ChaGo-K-1 | 0.65 | 0.504 | 0.678 | 0.6 | 1.43 | 0.818 | 0.973 | 0.734 | 0.218 | 0.237 | 0.245 | 0.213 | 0.954 | 0.779 | 0.836 | 0.912 | 0.284 | 0.259 | 0.259 | 0.248
EKVX | 0.724 | 0.779 | 0.667 | 0.64 | 1.07 | 1.07 | 0.951 | 0.714 | 0.352 | 0.376 | 0.422 | 0.31 | 0.77 | 0.571 | 0.768 | 0.768 | 0.392 | 0.375 | 0.413 | 0.33
EMC-BAC-2 | 0.407 | 0.324 | 0.328 | 0.358 | 1.23 | 1.25 | 1.38 | 0.935 | 0.304 | 0.276 | 0.289 | 0.247 | 1.1 | 0.953 | 1.01 | 0.907 | 0.44 | 0.412 | 0.422 | 0.442
EPLC-272H | 0.275 | 0.284 | 0.285 | 0.262 | 1.37 | 1.29 | 1.17 | 0.964 | 0.25 | 0.182 | 0.288 | 0.389 | 0.661 | 0.644 | 0.659 | 0.71 | – | 0.411 | 0.316 | 0.178
H3255 | 0.567 | 0.538 | 0.63 | 0.811 | 0.629 | 0.426 | 0.556 | 0.242 | 0.612 | 0.733 | 0.791 | 0.893 | 0.849 | 0.799 | 0.866 | 0.854 | 0.605 | 0.549 | 0.559 | 0.543
HARA | 0.436 | 0.554 | 0.613 | 0.44 | 1.14 | 1.16 | 1.13 | 1.21 | 0.0986 | 0.0955 | 0.144 | 0.0866 | 0.983 | 0.975 | 0.805 | 0.824 | 0.281 | 0.243 | 0.268 | 0.215
